Test results as given in publication PMC11680790, “Structural and functional determination of peptide versus small molecule ligand binding at the apelin receptor” (Nature Communications, 2024).
Numbering of substitutions follows the chain as printed. Each block holds one compound with its values, some of them ahead of it. Where no end group is shown, it is not given here. 647 dye = not defined here

Assays:
[1] = test system: G/X45^1.49 variant apelin receptor; assay: Saturation radioligand binding, CHO-K1 membranes, G/X45^1.49; set-up: species or system human
Method: (§1) The radiolabel has a specific activity of 2200 Ci/mmol. Plastic-ware used in radioligand binding experiments was coated with Sigmacote, a siliconising reagent that forms a covalent film to reduce sticking of the radiolabel.
(§2) Membrane protein preparations were made by harvesting CHO-K1 cells transiently transfected with wild-type or variant apelin receptor construct into tubes. Tubes were spun at 1000 xg for 10 min at 4 °C to pellet cells, before resuspending and triturating in ice-cold TRIS wash buffer (50 mM TRIS-HCl in deionised water, pH balanced to 7.4 at room temperature) to induce complete hypotonic lysis of cells. Cells were spun a second time at 21,000 × g for 20 min at 4 °C, to obtain a crude membrane fraction. Supernatant was discarded and membrane preparations resuspended in TRIS wash buffer. Cell membrane preparations were stored at –70 °C until use in experiments. Protein concentration of cell membrane preparations was determined using a DC Protein Assay (Bio-Rad), as per the manufacturer’s instructions.
(§3) For binding experiments, membrane preparations were diluted in binding buffer (50 mM TRIS-HCl and 5 mM MgCl2, balanced to pH 7.4 at room temperature) to give a final protein concentration of 1 mg/mL. […] At the end-point, samples were spun in a centrifuge at 20,000 × g for 10 min at 4 °C to terminate equilibrium. Supernatant was aspirated, and pellets were resuspended and triturated in 500 μL ice-cold wash buffer, over ice. Samples were spun a second time at 20,000 × g for 10 min at 4 °C, before aspiration of the supernatant. Radioactivity in pellets was counted using a Cobra II model 5003 gamma counter (Packard).
(§4) Saturation binding data were analysed using the EBDA and LIGAND components of the KELL (Kinetic, EBDA, Ligand, Lowry) software package (Biosoft)[58] to generate receptor affinity (KD) and receptor density (Bmax) values. […] Saturation data were presented using the nonlinear one site-specific binding with Hill slope model fitted by GraphPad Prism version 6.07 for Windows (GraphPad Software).

[2] = target: T1, wild-type apelin receptor (Homo sapiens, UniProt P35414); assay: Saturation radioligand binding, CHO-K1 membranes, wild-type; details: WT; mean ± SD, n = 3
T1 construct: expressed in transfected cells; host or cells: CHO-K1 (ECACC 85051005), transient, pcDNA3.1
T1 sequence (P35414 1-380): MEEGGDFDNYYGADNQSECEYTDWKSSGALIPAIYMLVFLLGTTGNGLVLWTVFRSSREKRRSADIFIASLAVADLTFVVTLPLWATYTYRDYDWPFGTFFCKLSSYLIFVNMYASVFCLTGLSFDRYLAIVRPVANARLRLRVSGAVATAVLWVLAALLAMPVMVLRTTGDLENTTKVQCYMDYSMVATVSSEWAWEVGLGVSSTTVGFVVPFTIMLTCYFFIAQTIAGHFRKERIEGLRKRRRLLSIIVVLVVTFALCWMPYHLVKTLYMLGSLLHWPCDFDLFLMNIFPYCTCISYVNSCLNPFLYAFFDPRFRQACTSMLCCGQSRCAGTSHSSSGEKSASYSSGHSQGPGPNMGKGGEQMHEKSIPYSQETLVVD
Method: as §1, §2
(§5) For binding experiments, membrane preparations were diluted in binding buffer (50 mM TRIS-HCl and 5 mM MgCl2, balanced to pH 7.4 at room temperature) to give a final protein concentration of 1 mg/mL. […] At the end-point, samples were spun in a centrifuge at 20,000 × g for 10 min at 4 °C to terminate equilibrium. […]

[3] = test system: untransfected CHO-K1 cells; assay: Saturation radioligand binding, untransfected CHO-K1 membranes
[4] = target: T2, R/H168^4.64 variant apelin receptor (Homo sapiens, UniProt P35414, R168H); assay: Saturation radioligand binding, CHO-K1 membranes, R/H168^4.64
T2 construct: expressed in transfected cells; host or cells: CHO-K1, transient, pcDNA3.1
T2 sequence (P35414 1-380 R168H): T1 sequence (P35414 1-380) with R168H
Method: as §1, §2, §5

[5] = test system: R/H168^4.64 apelin receptor, hESC; assay: Saturation radioligand binding, R/H168^4.64 hESC membranes; set-up: species or system human
Method: as §1, §2, §5

[6] = test system: R/H168^4.64 apelin receptor, hESC-CM; assay: Saturation radioligand binding, R/H168^4.64 hESC-CM membranes; set-up: species or system human
Method: as §1, §2, §5

[7] = target: T3, T/M89^2.64 variant apelin receptor (Homo sapiens, UniProt P35414, T89M); assay: Saturation radioligand binding, CHO-K1 membranes, T/M89^2.64; details: mean ± SD, n = 3
T3 construct: expressed in transfected cells; host or cells: CHO-K1, transient, pcDNA3.1
T3 sequence (P35414 1-380 T89M): T1 sequence (P35414 1-380) with T89M
Method: as §1, §2, §5

[8] = target: apelin receptor, homogenised human left ventricle; details: previously determined by saturation analysis in homogenised human left ventricle; cited from earlier work
Method: Heart Homogenate. Ethically approved (Research Ethics Committee 05/Q104/142) surgical samples of human left ventricle tissue were obtained with informed consent at the time of operation from Royal Papworth Hospital Tissue Bank and stored at -80°C. Tissues were homogenised using a Polytron Homogenizer (Thomas Scientific), in buff ...

[9] = target: T4, V/L38^1.42 variant apelin receptor (Homo sapiens, UniProt P35414, V38L); assay: Saturation radioligand binding, CHO-K1 membranes, V/L38^1.42
T4 construct: expressed in transfected cells; host or cells: CHO-K1, transient, pcDNA3.1
T4 sequence (P35414 1-380 V38L): T1 sequence (P35414 1-380) with V38L
Method: as §1, §2, §5

[10] = test system: T/X227^5.64 variant apelin receptor; assay: Saturation radioligand binding, CHO-K1 membranes, T/X227^5.64; set-up: species or system human
Method: as §1, §2, §3, §4

[11] = test system: T/X227^5.64 variant apelin receptor; assay: High content screening, fluorescent ligand binding in transfected CHO-K1 cells, T/X227^5.64; set-up: species or system human; details: 1 µM, 90 min, mean ± SD, n = 4 in triplicate
Method: (§6) Cells were maintained at 37 °C, in humidified air containing 5% CO2.
(§7) High content screening was used to characterise apelin receptor variant expression, membrane localisation, and fluorescent ligand binding. CHO-K1 cells transiently transfected with wild-type or variant apelin receptor construct tagged C-terminally with eGFP were plated at ~10,000/well in CellCarrier-96 Ultra Plates (PerkinElmer). […] Fluorescent ligand was washed out with HBSS, and cells were fixed with 4% formaldehyde for ~3 min. […] After a final wash, cells were maintained in 100 µL HBSS.
(§8) Cells maintained in the 96-well plates were imaged on an Opera Phenix High Content Screening System (PerkinElmer), a highly sensitive, dual-camera spinning disk confocal fluorescent imaging platform, using a 40x/NA1.1 water immersion objective. […] Three fluorescent channels were used. […] For all channels, excitation laser intensity was set at 50% power, with a 50 ms exposure time. Additionally, each imaging field was imaged using bright-field and digital phase contrast (DPC). […]
(§9) Mean membrane fluorescence was then quantified for the green channel as an indication of membrane protein expression, and for the red channel as an indication of fluorescent ligand binding.

[12] = test system: G/X45^1.49 variant apelin receptor; assay: High content screening, fluorescent ligand binding in transfected CHO-K1 cells, G/X45^1.49; set-up: species or system human; details: 1 µM, 90 min, mean ± SD, n = 4 in triplicate
Method: as §6, §7, §8, §9

[13] = 90 min, room temperature, pH 7.4

Bmax [1]: NBD
Hill slope (nH) [1]: NBD
KD [1, 13]: NBD
Bmax [2]: 236.80 ± 27.07 fmol/mg
Hill slope (nH) [2]: 1.26 ± 0.22
Bmax [4]: NBD
Hill slope (nH) [4]: NBD
[125I]-apelin-13 binding versus wild-type [5]: significantly reduced
[125I]-apelin-13 binding versus wild-type [6]: significantly reduced
Bmax [7]: 440.47 ± 38.36 fmol/mg
Hill slope (nH) [7]: 1.55 ± 0.22
Bmax [9]: NBD
Hill slope (nH) [9]: NBD
Bmax [10]: NBD
Hill slope (nH) [10]: NBD
KD [10, 13]: NBD
Compound: CCCC[C@H](NC(=O)[C@@H]1CCCN1C(=O)CNC(=O)[C@H](CCCCN)NC(=O)[C@H](Cc1c[nH]cn1)NC(=O)[C@H](CO)NC(=O)[C@H](CC(C)C)NC(=O)[C@H](CCCNC(=N)N)NC(=O)[C@@H]1CCCN1C(=O)[C@H](CCCNC(=N)N)NC(=O)[C@@H]1CCC(=O)N1)C(=O)N1CCC[C@H]1C(=O)N[C@@H](Cc1ccc(O)c(I)c1)C(=O)O [[^125I]-apelin-13]
Bmax [3]: NBD
Hill slope (nH) [3]: NBD
KD [3, 13]: NBD
Kd [8]: 0.076 nM

Compound: ELA647: fluorescently labelled ELA peptide ({647 dye}-QRPVNLTMRRKLRKHNCLQRRCMPLHSRVPFP; ends and bridges not checked; UniProt P0DMC3 23-54, looked up)
Mem. ELA647 [11]: 14.83 ± 7.02 % WT
Mem. ELA647 [12]: 20.73 ± 12.55 % WT
